Experiments:
[1] = tested on: EMT markers in LoVo-OXAR cells; details: western blot, 24 hours
Description: (§1) Vimentin and E-cadherin are molecular markers linked to tumor progression through their roles in EMT, which is a pathological process contributing to migration and invasion of cancer cells and tumor progression. Vimentin is a key component of intermediate filaments, which helps maintain cellular integrity and resistance to stress. E-cadherin plays a role in maintaining epithelial phenotypes by mediating contact inhibition when cells proliferate and reach confluence. To further investigate the influence of the compound (II) on EMT marker expression, western blotting, immunofluorescence detection, and quantitative real-time reverse transcription polymerase chain reaction (qRT-PCR) were performed in LoVo-parental and LoVo-OXAR cells treated with various doses of the compound (II) for 24 hours.
(§2) The cells after the indicated treatments were harvested and subject to western blot analysis using primary antibodies against vimentin, E-cadherin, and GAPDH (San-ta Cruz Biotechnology Inc. Santa Cruz, California, USA). GAPDH was used as an internal control.

[2] = tested on: EMT markers in LoVo-parental cells; details: western blot, 24 hours
Description: as §1, §2

[3] = tested on: EMT markers in LoVo-OXAR cells; details: qRT-PCR
Description: as §1
(§3) Total RNA from the cells after the indicated treatments was extracted using the GeneJET RNA purification kit (ThermoFisher Scientific, Lithuania) and reverse transcribed to cDNA using a GScript First-Strand Synthesis Kit, a cDNA synthesis kit, and Oligo-dT primers according to the manufacturer's instructions. RT-PCR was performed using ORA^T SEE qPCR Green ROX L Mix, 2× (HighQu, USA). Primers for EMT markers (Vimentin, E-cadherin, TJP1, and FN1) and GAPDH (as endogenous control) were synthesized by Bio-ProTech based the sequences in TABLE 1. The 2^−ΔΔCt method was used to calculate a relative fold change in gene expression. […] TJP1 is a marker of epithelial cells that disappears during EMT and cancer development. In contrast, FN1 is involved in the occurrence and development of various tumors and acts as a critical gene in gastric cancer.

[4] = tested on: EMT markers in LoVo-parental cells; details: qRT-PCR
Description: as §1, §3

HeLa cells = details: 0.5-1000 μg/ml, 48 hours
Procedure: Human cervical carcinoma HeLa cells (commercially available from ATCC under the number CCL-2) were cultured in DMEM supplemented with 10% FBS.

GBM 8401 cells = details: 0-1800 μg/ml, 24 hours
Procedure: Human brain glioblastoma multiforme GBM 8401 cells (commercially available from BCRC under the number BCRC 60163) were cultured in RPMI 1640 medium supplemented with 10% FBS.

CL1-parental cells = details: 0-1600 μg/ml, 24 hours
Procedure: (§4) BEAS-2B cells (95102433, Sigma-Aldrich) were cultured in LHC-9 medium (Gibco™, Thermo Fisher Scientific, Waltham, MA, USA).

[5] = tested on: gemcitabine-resistant CL1 cells (CL1-GEMR cells); details: 0-1600 μg/ml, 24 hours
Procedure: as §4

BEAS-2B cells = details: 0-800 μg/ml, 24 hours
Procedure: as §4

LoVo-OXAR cells = details: 24 hours
Jurkat cells = details: 0-1600 μg/ml, 24 hours
Procedure: Human T-acute lymphoblastic leukemia Jurkat cells (resistant to cisplatin and commercially available from ATCC under the number TIB-512) were cultured in RPMI 1640 medium supplemented with 10% FBS.

PANC-1 cells = details: six days
Procedure: (§5) Human pancreatic carcinoma MIA PaCa-2 cells (commercially available from ATCC under the number CRL-1420) were cultured in DMEM supplemented with 10% FBS, 1 mM sodium pyruvate, and 2.5% horse serum. Human pancreatic epithelioid carcinoma PANC-1 cells (commercially available from ATCC under the number CRL-1469) were cultured in DMEM supplemented with 10% FBS and 1 mM sodium pyruvate.

MIA PaCa-2 cells = details: six days
Procedure: as §5

MDA-MB231 cells = details: 0-3000 μg/ml, 24 hours; effect more prominent than in T-47D
Procedure: (§6) Human breast cancer cells T-47D (commercially available from ATCC under the number HTB-133) and MDA-MB231 (commercially available from ATCC under the number HTB-26) were cultured in RPMI 1640 medium supplemented with 10% FBS.

T-47D cells = details: 0-3000 μg/ml, 24 hours
Procedure: as §6

[6] = tested on: ER stress markers in LoVo-parental cells; details: 500 μg/ml, 24 hours
Procedure: (§7) Western blot analysis was conducted using primary antibodies against protein kinase RNA-like endoplasmic reticulum kinase (PERK), phosphorylated PERK (p-PERK), alpha subunit of eukaryotic translation initiation factor 2 (eIF2α), phosphorylated eIF2α (p-eIF2α), activating transcription factor 4 (ATF4), proliferating cell nuclear antigen (PCNA), glyceraldehyde 3-phosphate dehydrogenase (GAPDH), and caspase 3 (San-ta Cruz Biotechnology Inc. Santa Cruz, California, USA). GAPDH was used as an internal control for the normalization of protein expression. […] Phosphorylated eIF2α has been known to inhibit the synthesis of various proteins participating in tumorigenesis.

[7] = tested on: ER stress markers in LoVo-OXAR cells; details: 2000 μg/ml, 24 hours
Procedure: as §7

CP70 cells = details: 0-1600 μg/ml, 24 hours

For `CC(=O)[O-].CC(=O)[O-].CC(=O)[O-].CC(=O)[O-].CC(=O)[O-].CC(=O)[O-].O.O.O.O.O=[N+]([O-])[O-].[Cr+3].[Fe+3].[Fe+3].[OH-].[OH-]` [compound (II)], the “protein expression of E-cadherin” value [1] was “increased”, the “protein expression of vimentin” value [1] was “significantly reduced” and the “protein expression of E-cadherin” value [2] was “increased”. For the same compound, the “protein expression of vimentin” value [2] was “significantly reduced”, the “E-cadherin mRNA expression” value [3] was “increased” and the “FN1 mRNA expression” value [3] was “decreased”. For the same compound, the “TJP1 mRNA expression” value [3] was “increased”, the “vimentin mRNA expression” value [3] was “decreased” and the “E-cadherin mRNA expression” value [4] was “increased”. The “FN1 mRNA expression” value [4] was “decreased”, the “TJP1 mRNA expression” value [4] was “increased” and the “vimentin mRNA expression” value [4] was “decreased”. The “viability of HeLa cells” value (HeLa cells) was “reduced the viability of the metastatic Hela cells in a dose-dependent manner”, the “viability of GBM 8401 cells” value (GBM 8401 cells) was “reduced the viability of the glioblastoma cells in a dose-dependent manner” and the “viability of CL1-parental cells” value (CL1-parental cells) was “reduced the viability of both lung cancer cells in a dose-dependent manner”. For the same compound, the “viability of gemcitabine-resistant CL1 cells” value [5] was “reduced the viability of both lung cancer cells in a dose-dependent manner”, the “survival of non-tumorigenic BEAS-2B cells” value (BEAS-2B cells) was “did not significantly inhibit the survival of BEAS-2B cells” and the “viability of LoVo-OXAR cells” value (LoVo-OXAR cells; 0-4000 μg/ml) was “reduced the viability of both colorectal cancer cells in a dose-dependent manner”. For the same compound, the “IC50 against LoVo-OXAR cells” value (LoVo-OXAR cells; MTT) was “about 2000 μg/ml”, the “viability of Jurkat cells” value (Jurkat cells) was “reduced the viability of the Jurkat cells in a dose-dependent manner” and the “viability of PANC-1 cells” value (PANC-1 cells; 0-2000 μg/ml) was “reduced the viability of both pancreatic cancer cells in a dose-dependent manner”. The “IC50 against PANC-1 cells” value (PANC-1 cells; MTT) was about 1700 µg/mL, the “viability of MIA PaCa-2 cells” value (MIA PaCa-2 cells; 0-2000 μg/ml) was “reduced the viability of both pancreatic cancer cells in a dose-dependent manner” and the “IC50 against MIA PaCa-2 cells” value (MIA PaCa-2 cells; MTT) was “approximately 660 μg/ml”. The “viability of MDA-MB231 cells” value (MDA-MB231 cells) was “reduced the viability of both breast cancer cells in a dose-dependent manner”, the “viability of T-47D cells” value (T-47D cells) was “reduced the viability of both breast cancer cells in a dose-dependent manner” and the caspase-3 cleavage [6] was “activates caspase-3 cleavage”. The “expression of ER stress markers, including PERK, p-eIF2α, and ATF4” value [6] was “enhancing the expression of ER stress markers”, the “eIF2α levels in LoVo-OXAR cells” value ([7]; western blot) was “decreased” and the “phosphorylation of eIF2α in LoVo-OXAR cells” value ([7]; western blot) was “increased”. The caspase-3 cleavage ([7]; LoVo-OXAR cells) was “activates caspase-3 cleavage”, the “expression of ER stress markers, including PERK, p-eIF2α, and ATF4” value ([7]; LoVo-OXAR cells) was “enhancing the expression of ER stress markers” and the “viability of CP70 cells” value (CP70 cells) was “reduced the viability of the ovarian cancer cells in a dose-dependent manner”.

Source: patent US20260199371A1, “COORDINATION COMPOUND, COMPOSITIONS, AND USES THEREOF FOR TREATING CANCERS” (HUEIYUAN BIOTECH LLC, priority 2023, published 2026)
